# In US20230151034A1 (COCRYSTAL PHARMA, INC., priority 2020, published 2023):
# Read-outs that look alike come from different tables or passages of the source.
# Legend:
# [1] = molecular target: HuNV GGII.4 Norovirus protease (Norovirus GII.4 (human norovirus genogroup II genotype 4), UniProt P54634); assay: Norovirus protease FRET assay (HuNV GGII.4); format: biochemical; conditions: FRET protease assay, read-out: HuNV GGII.4 IC50
# SARS2 protease = SARS2 protease (Severe acute respiratory syndrome coronavirus 2, UniProt P0DTD1); assay: SARS-CoV-2 protease inhibition assay (SARS2 FRET protease assay); format: biochemical
# Method: (§1) Viral protease assays: The antiviral activities of inhibitors were determined by FRET (Fluorescence Resonance Energy Transfer) assay. Purified viral protease was incubated with the protease substrate peptide (Edans-DFHLQ/GP-Dabcyl) and inhibitor, and IC50 values were subsequently determined by the fluorescence signals.
# The SARS2 FRET protease assay was performed in 20 mM HEPES-Na pH 7, 120 mM NaCl, 0.4 mM EDTA, 0.01% Triton, 5% glycerol, and 4 mM DTT. A self-quenching peptide substrate 5-FAM-TSA VLQ SGF RKK (5TAMRA)-NH2 was custom synthesized by Anaspec. Compounds were diluted in 3-fold serial dilutions to final concentrations of 20 μM to 1.0 nM. SARS2 protease was added to a final concentration of 25 nM, depending on the enzyme activity level, and the peptide substrate was added to a final concentration of 1.3 μM. The assay was incubated 30 minutes at 30° C. and read in a Perkin Elmer Envision with excitation at 473 nm and emission measurement at 519 nm.
# [2] = molecular target: Norwalk GGI.1 Norovirus protease (Norovirus, UniProt Q83883); assay: Noro-Norwalk FRET protease assay (Norwalk GGI.1); format: biochemical, Norwalk virus; conditions: FRET protease assay, read-out: Norwalk GGI.1 IC50
# Norwalk GGI.1 Norovirus protease, sequence (Q83883 1101-1281): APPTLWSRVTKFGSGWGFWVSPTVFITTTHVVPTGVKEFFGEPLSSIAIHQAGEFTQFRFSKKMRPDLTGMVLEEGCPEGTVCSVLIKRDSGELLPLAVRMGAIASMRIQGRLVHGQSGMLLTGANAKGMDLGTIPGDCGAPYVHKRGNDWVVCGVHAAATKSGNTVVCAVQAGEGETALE
# Method: as §1
# The Noro-Norwalk FRET protease assay was performed in 50 mM HEPES-Na pH 8, 50 mM NaCl, 0.4 mM EDTA, 4% glycerol, and 6 mM DTT. A self-quenching peptide substrate [5-FAM]-[…]-[TAMRA] was custom synthesized by Anaspec. Compounds were diluted in 3-fold serial dilutions to final concentrations of 200 μM to 10.2 nM. Noro protease was added to a final concentration of 1-7 μM, depending on the enzyme activity level, and the peptide substrate was added to a final concentration of 10 μM. The assay was incubated 90 minutes at 37° C. and read in a Perkin Elmer Envision with excitation at 473 nm and emission measurement at 519 nm.
# [3] = Table E, SARS-CoV-2 protease inhibition, read-out: IC50
# HuNV GGII.4 Norovirus protease, sequence (P54634 1009-1189): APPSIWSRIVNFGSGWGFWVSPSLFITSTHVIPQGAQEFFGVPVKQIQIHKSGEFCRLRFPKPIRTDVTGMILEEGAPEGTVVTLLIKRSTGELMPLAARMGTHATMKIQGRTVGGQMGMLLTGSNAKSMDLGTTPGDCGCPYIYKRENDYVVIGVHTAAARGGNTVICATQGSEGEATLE
SMILES,IC50 (SARS2 protease; [3]),IC50 ([1]; Table C),IC50 ([2]; Table C),further results
"CCCCCCCC1CC/C=C/CC(C(=O)NC)C[C@@H](C(=O)N(C)OC)NC(=O)C(CC(C)C)NC(=O)O1 (single isomer, unassigned) [Compound B37]",> 200 µM,–,–,IC50 ([1]; Table D): > 200 µM; IC50 ([2]; Table D): > 200 µM
"CCOCCOCCN(C)C(=O)CC[C@H](NC(=O)C(CC1CCCCC1)NC(=O)OCc1cccc(Cl)c1)C(O)P(=O)(OCC)OCC (stereo in doubt) [Compound A11, 3-Chlorobenzyl ((13S,16S)-17-cyclohexyl-13-((diethoxyphosphoryl)(hydroxy)methyl)-9-methyl-10,15-dioxo-3,6-dioxa-9,14-diazaheptadecan-16-yl)carbamate]",> 200 µM,114 µM,133 µM,–
"CN(CCc1ccccc1)C(=O)CC[C@H](NC(=O)[C@H](CC1CCCCC1)NC(=O)OCc1cccc(Cl)c1)C(O)S(=O)(=O)O (stereo in doubt) [Compound A114, Sodium (2S)-2-((S)-2-((((3-chlorobenzyl)oxy)carbonyl)amino)-3-cyclohexylpropanamido)-1-hydroxy-5-(methyl (phenethyl)amino)-5-oxopentane-1-sulfonate]",–,12.1 µM,5.2 µM,–
"O=C[C@H](CCC(=O)N1CCc2ccccc2CC1)NC(=O)[C@H](CC1CCCCC1)NC(=O)OCc1cccc(Cl)c1 (stereo in doubt) [Compound A118, 3-Chlorobenzyl ((S)-3-cyclohexyl-1-(((S)-1,5-dioxo-5-(1,2,4,5-tetrahydro-3H-benzo[d]azepin-3-yl)pentan-2-yl)amino)-1-oxopropan-2-yl)carbamate]",–,74.2 µM,6.6 µM,–
"O=C[C@H](CCC(=O)N1CCOc2ccccc2C1)NC(=O)[C@H](CC1CCCCC1)NC(=O)OCc1cccc(Cl)c1 [Compound A57, 3-Chlorobenzyl ((S)-3-cyclohexyl-1-(((S)-5-(2,3-dihydrobenzo[f][1,4]oxazepin-4(5H)-yl)-1,5-dioxopentan-2-yl)amino)-1-oxopropan-2-yl)carbamate]",–,2.6 µM,2.3 µM,–
"CN(CCc1ccncc1)C(=O)CC[C@@H](C=O)NC(=O)[C@H](CC1CCCCC1)NC(=O)OCc1cccc(Cl)c1 [Compound A68, 3-Chlorobenzyl ((S)-3-cyclohexyl-1-(((S)-5-(methyl (2-(pyridin-4-yl)ethyl)amino)-1,5-dioxopentan-2-yl)amino)-1-oxopropan-2-yl) carbamate]",–,16.7 µM,4.6 µM,–
"O=C[C@H](CCC(=O)N1CCCCc2ccccc21)NC(=O)[C@H](CC1CCCCC1)NC(=O)OCc1cccc(Cl)c1 [Compound A107, 3-Chlorobenzyl ((S)-3-cyclohexyl-1-(((S)-1,5-dioxo-5-(2,3,4,5-tetrahydro-1H-benzo[b]azepin-1-yl)pentan-2-yl)amino)-1-oxopropan-2-yl)carbamate]",–,200 µM,39.6 µM,–
"O=C[C@H](CCC(=O)N1CCOCc2ccccc21)NC(=O)[C@H](CC1CCCCC1)NC(=O)OCc1cccc(Cl)c1 [Compound A108, 3-Chlorobenzyl ((S)-3-cyclohexyl-1-(((S)-5-(2,3-dihydrobenzo[e][1,4]oxazepin-1(5H)-yl)-1,5-dioxopentan-2-yl)amino)-1-oxopropan-2-yl)carbamate]",–,13.4 µM,8 µM,–
"CCCCCCCC1CCC/C=C/CC2(CCNC2=O)C[C@@H]([C@H](O)P(=O)(OCC)OCC)NC(=O)[C@H](CC(C)C)NC1=O (stereo partly drawn) [Compound B22, Diethyl ((1R)-((7S,10S,E)-13-heptyl-10-isobutyl-1,9,12-trioxo-2,8,11-triazaspiro[4.14]nonadec-17-en-7-yl)(hydroxy)methyl)phosphonate]",–,–,–,IC50 (SARS2 protease): > 200 µM
"CCOP(=O)(OCC)C(O)[C@@H]1CC2(CC=CCCCC(Cc3ccccc3)C(=O)N[C@@H](CC(C)C)C(=O)N1)CCNC2=O (stereo partly drawn) [Compound B23, Diethyl (((7S,10S)-13-benzyl-10-isobutyl-1,9,12-trioxo-2,8,11-triazaspiro[4.14]nonadec-17-en-7-yl)(hydroxy)methyl)phosphonate]",46.5 µM,–,–,–
"CC(C)C[C@@H]1NC(=O)C(Cc2ccccc2)CCCCCCCC2CC(NC1=O)C(O)N(C)C2=O (stereo partly drawn) [Compound B24, (4S)-7-benzyl-18-hydroxy-4-isobutyl-17-methyl-2,5,17-triazabicyclo[13.3.1]nonadecane-3,6,16-trione]",188 µM,–,–,–
"CCCC1CCCC/C=C/CC2CC(NC(=O)[C@H](CC(C)C)NC1=O)C(O)(C(=O)NC(C)C)N(C)C2=O (stereo partly drawn) [Compound B26, (4S,E)-18-hydroxy-4-isobutyl-N-isopropyl-17-methyl-3,6,16-trioxo-7-propyl-2,5,17-triazabicyclo[13.3.1]nonadec-12-ene-18-carboxamide]",> 200 µM,–,–,–
"CCOP(=O)(OCC)[C@H](O)[C@@H]1CC(C(=O)N(C)Cc2ccc(OC)cc2OC)C/C=C/CCC(Cc2ccccc2)OC(=O)N[C@@H](CC(C)C)C(=O)N1 (stereo partly drawn) [Compound B28, Diethyl ((1S)-((4S,7S,E)-15-benzyl-9-((2,4-dimethoxybenzyl)(methyl)carbamoyl)-4-isobutyl-2,5-dioxo-1-oxa-3,6-diazacyclopentadec-11-en-7-yl)(hydroxy)methyl)phosphonate]",> 200 µM,–,–,–
CCO[N+]([O-])(OCC)[C@H](O)[C@H]1CC2(CCCCCCC(Cc3ccccc3)C(=O)N[C@@H](CC(C)C)C(=O)N1)CCNC2=O (stereo partly drawn) [Compound B41],> 200 µM,–,–,–
"CC(C)C[C@@H]1NC(=O)OC(Cc2ccccc2)CCC=CCC(C(=O)N(C)C)C[C@@H](C(=O)C(=O)NC(C)C)NC1=O (stereo partly drawn) [Compound B42, (4S,7S)-15-benzyl-4-isobutyl-7-(2-(isopropylamino)-2-oxoacetyl)-N,N-dimethyl-2,5-dioxo-1-oxa-3,6-diazacyclopentadec-11-ene-9-carboxamide]",–,–,–,IC50 (SARS2 protease): > 200 µM
"CCOP(=O)(OCC)C(O)[C@@H]1CC(C(=O)N(C)C)CCCCCC(Cc2ccccc2)OC(=O)N[C@@H](CC(C)C)C(=O)N1 (stereo partly drawn) [Compound B45, Diethyl (((4S,7S)-15-benzyl-9-(dimethylcarbamoyl)-4-isobutyl-2,5-dioxo-1-oxa-3,6-diazacyclopentadecan-7-yl)(hydroxy)methyl)phosphonate]",> 200 µM,–,–,–
"CCCCCCCC1CC/C=C/CC(C(=O)NC)C[C@@H](CO)NC(=O)[C@H](CC(C)C)NC(=O)O1 (stereo partly drawn) [Compound B63, (4S,7S,E)-15-heptyl-7-(hydroxymethyl)-4-isobutyl-N-methyl-2,5-dioxo-1-oxa-3,6-diazacyclopentadec-11-ene-9-carboxamide]",30 µM,–,–,–
"CCCCCCCC1CC/C=C/CC(C(=O)NC)C[C@@H](C(=O)N(C)OC)NC(=O)[C@H](CC(C)C)NC(=O)O1 (stereo partly drawn) [Compound B64, (4S,7S,E)-15-heptyl-4-isobutyl-N^7-methoxy-N^7,N^9-dimethyl-2,5-dioxo-1-oxa-3,6-diazacyclopentadec-11-ene-7,9-dicarboxamide]",> 200 µM,–,–,–
"CCCCCCCC1CC/C=C\CC(C(=O)NC)C[C@@H](CO)NC(=O)[C@H](CC(C)C)NC1=O (stereo partly drawn) [Compound B65, (2S,5S,Z)-13-heptyl-5-(hydroxymethyl)-2-isobutyl-N-methyl-3,14-dioxo-1,4-diazacyclotetradec-9-ene-7-carboxamide]",> 200 µM,–,–,–
"CCCCCCCC1CCCC/C=C/CC(C(=O)NC)C[C@@H](CO)NC(=O)[C@H](CC(C)C)NC1=O (stereo partly drawn) [Compound B66, (2S,5S,E)-15-heptyl-5-(hydroxymethyl)-2-isobutyl-N-methyl-3,16-dioxo-1,4-diazacyclohexadec-9-ene-7-carboxamide]",> 200 µM,–,–,–
